Measurements: patent US20210353693A1, “Live Biotherapeutics to Treat and Prevent Lung Conditions” (priority 2018, published 2021)
In brackets after ≈: the same amount, converted by molar mass. Read-outs that look alike come from different tables or passages of the source.

System: LH1
Test: ETEST antibiotic sensitivity of LH1
Assay type: cell-based
Conditions: for MIC: read-out: Susceptible to
[1] = ETEST, LH1, 24-hours anaerobic incubation

Compound	MIC [1]	Resistant to [1]	further results
CC[C@H]1OC(=O)[C@H](C)[C@@H](O[C@H]2C[C@@](C)(OC)[C@@H](O)[C@H](C)O2)[C@H](C)[C@@H](O[C@@H]2O[C@H](C)C[C@H](N(C)C)[C@H]2O)[C@](C)(O)C[C@@H](C)C(=O)[C@H](C)[C@@H](O)[C@]1(C)O [Erythromycin]	0.023 µg/mL (≈ 0.0313 µM)		
Trimethoprim/Sulfamethoxazole		32 µg/mL	
CN[C@H](CC(C)C)C(=O)N[C@H]1C(=O)N[C@@H](CC(N)=O)C(=O)N[C@H]2C(=O)N[C@H]3C(=O)N[C@H](C(=O)N[C@H](C(=O)O)c4cc(O)cc(O)c4-c4cc3ccc4O)[C@H](O)c3ccc(c(Cl)c3)Oc3cc2cc(c3O[C@@H]2O[C@H](CO)[C@@H](O)[C@H](O)[C@H]2O[C@H]2C[C@](C)(N)[C@H](O)[C@H](C)O2)Oc2ccc(cc2Cl)[C@H]1O [Vancomycin]	1.5 µg/mL (≈ 1.04 µM)		
NC[C@H]1O[C@H](O[C@H]2[C@H](O)[C@@H](O[C@H]3O[C@H](CO)[C@@H](O)[C@H](N)[C@H]3O)[C@H](N)C[C@@H]2N)[C@H](N)C[C@@H]1O [Tobramycin]		>512 µg/mL	
C[C@H]1[C@H](NC(=O)/C(=N\OC(C)(C)C(=O)O)c2csc(N)n2)C(=O)N1S(=O)(=O)O [Aztreonam]	2 µg/mL (≈ 4.59 µM)		
CN(C)[C@@H]1C(O)=C(C(N)=O)C(=O)[C@@]2(O)C(O)=C3C(=O)c4c(O)cccc4[C@@](C)(O)[C@H]3C[C@@H]12 [Tetracycline]	0.5 µg/mL (≈ 1.13 µM)		
CCN1CCN(C(=O)N[C@@H](C(=O)N[C@@H]2C(=O)N3[C@@H]2SC(C)(C)[C@@H]3C(=O)O)c2ccccc2)C(=O)C1=O [Piperacillan]			Susceptible to [1]: 0.19 µg/mL
O=C(O)c1cn(C2CC2)c2cc(N3CCNCC3)c(F)cc2c1=O [Ciprofloxacin), Ciprofloxacin]		32 µg/mL	
CC[C@H]1OC(=O)[C@H](C)[C@@H](O[C@H]2C[C@@](C)(OC)[C@@H](O)[C@H](C)O2)[C@H](C)[C@@H](O[C@@H]2O[C@H](C)C[C@H](N(C)C)[C@H]2O)[C@](C)(OC)C[C@@H](C)C(=O)[C@H](C)[C@@H](O)[C@]1(C)O [Clarithromycin]			MIC (24 h): 0.16 µg/mL (≈ 0.214 µM)
Amoxicillin/Clavulanic Acid			Susceptible to [1]: 0.125 µg/mL
CC(=O)NC[C@H]1CN(c2ccc(N3CCOCC3)c(F)c2)C(=O)O1 [Linezolid]	0.5 µg/mL (≈ 1.48 µM)		
CO[C@H]1/C=C/O[C@@]2(C)Oc3c(C)c(O)c4c(O)c(c(/C=N/N5CCN(C)CC5)c(O)c4c3C2=O)NC(=O)/C(C)=C\C=C\[C@H](C)[C@H](O)[C@@H](C)[C@@H](O)[C@@H](C)[C@H](OC(C)=O)[C@@H]1C [Rifampicin]	0.125 µg/mL (≈ 0.152 µM)		
C[C@H]1COc2c(N3CCN(C)CC3)c(F)cc3c(=O)c(C(=O)O)cn1c23 [Levofloxacin]		12 µg/mL	
C[C@@H](O)[C@H]1C(=O)N2C(C(=O)O)=C(SCCN=CN)C[C@H]12 [Imipenem]	0.094 µg/mL (≈ 0.314 µM)		
NCC[C@H](O)C(=O)N[C@@H]1C[C@H](N)[C@@H](O[C@H]2O[C@H](CN)[C@@H](O)[C@H](O)[C@H]2O)[C@H](O)[C@H]1O[C@H]1O[C@H](CO)[C@@H](O)[C@H](N)[C@H]1O [Amikacin]		48 µg/mL	
